Data published in ChEMBL document CHEMBL1201862, “PubChem BioAssay data set” (2004).
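Briefly, cells in 96-well plates were exposed to five compound concentrations for 48 h, and endpoints were estimated by linear interpolation. GI50 is the concentration that inhibits growth by half.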 The source made the active and inactive calls. Rule as the data show it: active = GI50 up to about 1.1 µM and inactive = higher.

What was measured:
Experiment in all cases: inhibition of tumour cell growth, NCI panel, 48 h
[1] = test system: CAKI-1
[2] = test system: MDA-MB-435
[3] = test system: MOLT-4
[4] = test system: NCI-H226
[5] = test system: HT-29
[6] = test system: MDA-MB-231
[7] = test system: A498
[8] = test system: CCRF-CEM
[9] = test system: RPMI-8226
[10] = test system: EKVX
[11] = test system: PC-3
[12] = test system: M14
[13] = test system: SK-MEL-2
[14] = test system: SN12C
[15] = test system: SF-268
[16] = test system: HCT-15
[17] = test system: COLO 205
[18] = test system: SNB-75
[19] = test system: SR
[20] = test system: OVCAR-4
[21] = test system: SK-OV-3
[22] = test system: 786-0
[23] = test system: ACHN
[24] = test system: BT-549
[25] = test system: SF-539
[26] = test system: HCT-116
[27] = test system: U-251
[28] = test system: UO-31
[29] = test system: IGROV-1
[30] = test system: UACC-62
[31] = test system: HOP-62
[32] = test system: Malme-3M
[33] = test system: NCI-H522
[34] = test system: KM12
[35] = test system: MCF7
[36] = test system: SK-MEL-5
[37] = test system: UACC-257
[38] = test system: OVCAR-3
[39] = test system: A549
[40] = test system: SF-295
[41] = test system: MDA-N
[42] = test system: HCC 2998
[43] = test system: SW-620
[44] = test system: OVCAR-8
[45] = test system: TK-10
[46] = test system: NCI/ADR-RES
[47] = test system: OVCAR-5
[48] = test system: NCI-H23
[49] = test system: DU-145
[50] = test system: T47D
[51] = test system: LOX IMVI
[52] = test system: HOP-92
[53] = test system: SK-MEL-28
[54] = test system: SNB-19
[55] = test system: NCI-H460
[56] = test system: RXF 393
[57] = test system: K562
[58] = test system: HL-60
[59] = test system: Hs-578T

CCCCNC(=S)Nc1nc(C(=O)NNC(=S)NCC)cs1
GI50 [1]: 63.5 µM (inactive) | GI50 [2]: > 100 µM (inactive) | GI50 [3]: 50.4 µM (inactive) | GI50 [4]: > 10 µM (inactive) | GI50 [5]: 53.8 µM (inactive) | GI50 [6]: 99.8 µM (inactive) | GI50 [7]: > 100 µM (inactive) | GI50 [8]: 44 µM (inactive) | GI50 [9]: > 100 µM (inactive) | GI50 [10]: 16.5 µM (inactive) | GI50 [11]: > 100 µM (inactive) | GI50 [12]: > 100 µM (inactive) | GI50 [13]: > 100 µM (inactive) | GI50 [14]: 56.8 µM (inactive) | GI50 [15]: > 100 µM (inactive) | GI50 [16]: 23 µM | GI50 [17]: 62.5 µM (inactive) | GI50 [18]: > 100 µM (inactive) | GI50 [19]: 6.73 µM (inactive) | GI50 [20]: 73.1 µM (inactive) | GI50 [21]: > 100 µM (inactive) | GI50 [22]: > 100 µM (inactive) | GI50 [23]: 31.6 µM (inactive) | GI50 [24]: > 100 µM (inactive) | GI50 [25]: 73.5 µM (inactive) | GI50 [26]: 53.1 µM (inactive) | GI50 [27]: > 100 µM (inactive) | GI50 [28]: 31.6 µM (inactive) | GI50 [29]: 78.5 µM (inactive) | GI50 [30]: > 100 µM (inactive) | GI50 [31]: > 100 µM (inactive) | GI50 [32]: > 100 µM (inactive) | GI50 [33]: > 100 µM (inactive) | GI50 [34]: 76.9 µM (inactive) | GI50 [35]: > 100 µM (inactive) | GI50 [36]: 25.7 µM (inactive) | GI50 [37]: > 100 µM (inactive) | GI50 [38]: 44 µM (inactive) | GI50 [39]: > 100 µM (inactive) | GI50 [40]: > 100 µM (inactive) | GI50 [41]: 82 µM (inactive) | GI50 [42]: > 100 µM (inactive) | GI50 [43]: 97.9 µM (inactive) | GI50 [44]: > 100 µM (inactive) | GI50 [45]: > 100 µM (inactive) | GI50 [46]: 26.5 µM (inactive) | GI50 [47]: > 100 µM (inactive) | GI50 [48]: > 100 µM (inactive) | GI50 [49]: 73.5 µM (inactive) | GI50 [50]: 16.7 µM (inactive) | GI50 [51]: 33.2 µM (inactive)

COc1ccc2nc3ccc(OC)cc3c([S+]([O-])Cc3ccccc3)c2c1 (centres undefined)
GI50 [52]: 4.76 µM (inactive) | GI50 [1]: 12.8 µM (inactive) | GI50 [2]: 12.8 µM (inactive) | GI50 [3]: 2.79 µM (inactive) | GI50 [4]: 19.4 µM (inactive) | GI50 [5]: 3.05 µM (inactive) | GI50 [6]: 16 µM (inactive) | GI50 [7]: 17 µM (inactive) | GI50 [8]: 2.65 µM (inactive) | GI50 [9]: 2.3 µM (inactive) | GI50 [10]: 16.3 µM (inactive) | GI50 [11]: 14.2 µM (inactive) | GI50 [12]: 14.4 µM (inactive) | GI50 [13]: 17 µM (inactive) | GI50 [14]: 7.62 µM (inactive) | GI50 [53]: 9.33 µM (inactive) | GI50 [15]: 16.9 µM (inactive) | GI50 [16]: 6.61 µM | GI50 [17]: 7.26 µM (inactive) | GI50 [18]: 15.5 µM (inactive) | GI50 [19]: 3.04 µM (inactive) | GI50 [20]: 14.9 µM (inactive) | GI50 [21]: 18.8 µM (inactive) | GI50 [22]: 2.21 µM (inactive) | GI50 [23]: 4.03 µM (inactive) | GI50 [24]: 14.3 µM (inactive) | GI50 [25]: 7.73 µM (inactive) | GI50 [26]: 2.45 µM (inactive) | GI50 [27]: 20.5 µM (inactive) | GI50 [28]: 6.87 µM (inactive) | GI50 [29]: 7.96 µM (inactive) | GI50 [30]: 14.8 µM (inactive) | GI50 [31]: 18 µM (inactive) | GI50 [32]: 2.42 µM (inactive) | GI50 [33]: 1.65 µM (inactive) | GI50 [34]: 17.8 µM (inactive) | GI50 [54]: 18 µM (inactive) | GI50 [35]: 2.3 µM (inactive) | GI50 [36]: 16.8 µM (inactive) | GI50 [37]: 7.8 µM (inactive) | GI50 [38]: 13.1 µM (inactive) | GI50 [55]: 25.5 µM (inactive) | GI50 [39]: 19.1 µM (inactive) | GI50 [40]: 17.8 µM (inactive) | GI50 [42]: 19.4 µM (inactive) | GI50 [43]: 3.89 µM (inactive) | GI50 [56]: 13.6 µM (inactive) | GI50 [44]: 3.48 µM (inactive) | GI50 [45]: 7.71 µM (inactive) | GI50 [46]: 20.3 µM (inactive) | GI50 [47]: 15.7 µM (inactive) | GI50 [48]: 8.81 µM (inactive) | GI50 [57]: 8.51 µM (inactive) | GI50 [49]: 2.07 µM (inactive) | GI50 [58]: 3.84 µM (inactive) | GI50 [50]: 2.11 µM (inactive) | GI50 [59]: 8.22 µM (inactive) | GI50 [51]: 2.07 µM (inactive)

CCOC(=O)c1ccc(-c2cc(C)[nH]n2)[nH]1
GI50 [52]: > 100 µM (inactive) | GI50 [1]: > 100 µM (inactive) | GI50 [2]: > 100 µM (inactive) | GI50 [4]: > 100 µM (inactive) | GI50 [5]: > 100 µM (inactive) | GI50 [6]: > 100 µM (inactive) | GI50 [7]: 50.4 µM (inactive) | GI50 [8]: > 100 µM (inactive) | GI50 [9]: > 100 µM (inactive) | GI50 [10]: 54.1 µM (inactive) | GI50 [11]: > 100 µM (inactive) | GI50 [12]: > 100 µM (inactive) | GI50 [13]: > 100 µM (inactive) | GI50 [14]: > 100 µM (inactive) | GI50 [53]: > 100 µM (inactive) | GI50 [15]: > 100 µM (inactive) | GI50 [16]: > 100 µM | GI50 [17]: > 100 µM (inactive) | GI50 [18]: > 100 µM (inactive) | GI50 [20]: > 100 µM (inactive) | GI50 [21]: > 100 µM (inactive) | GI50 [22]: > 100 µM (inactive) | GI50 [23]: > 100 µM (inactive) | GI50 [24]: > 100 µM (inactive) | GI50 [25]: > 100 µM (inactive) | GI50 [26]: > 100 µM (inactive) | GI50 [27]: > 100 µM (inactive) | GI50 [28]: > 100 µM (inactive) | GI50 [30]: > 100 µM (inactive) | GI50 [31]: > 100 µM (inactive) | GI50 [32]: > 100 µM (inactive) | GI50 [33]: > 100 µM (inactive) | GI50 [34]: 62.5 µM (inactive) | GI50 [54]: > 100 µM (inactive) | GI50 [36]: > 100 µM (inactive) | GI50 [37]: > 100 µM (inactive) | GI50 [38]: > 100 µM (inactive) | GI50 [55]: > 100 µM (inactive) | GI50 [39]: > 100 µM (inactive) | GI50 [40]: > 100 µM (inactive) | GI50 [41]: > 100 µM (inactive) | GI50 [43]: > 100 µM (inactive) | GI50 [56]: > 100 µM (inactive) | GI50 [44]: > 100 µM (inactive) | GI50 [45]: > 100 µM (inactive) | GI50 [46]: > 100 µM (inactive) | GI50 [47]: > 100 µM (inactive) | GI50 [48]: > 100 µM (inactive) | GI50 [49]: > 100 µM (inactive) | GI50 [58]: 63.5 µM (inactive) | GI50 [50]: 85.5 µM (inactive) | GI50 [51]: > 100 µM (inactive)

COc1cc([N+](=O)[O-])c(S(=O)(=O)O)cc1-n1nc(C(=O)Nc2ccccc2)n[n+]1-c1cc(S(=O)(=O)[O-])c([N+](=O)[O-])cc1OC
GI50 [52]: > 100 µM (inactive) | GI50 [1]: > 100 µM (inactive) | GI50 [2]: 85.5 µM (inactive) | GI50 [3]: > 100 µM (inactive) | GI50 [4]: > 100 µM (inactive) | GI50 [5]: 56 µM (inactive) | GI50 [8]: > 100 µM (inactive) | GI50 [9]: > 100 µM (inactive) | GI50 [10]: > 100 µM (inactive) | GI50 [11]: > 100 µM (inactive) | GI50 [12]: > 100 µM (inactive) | GI50 [13]: > 100 µM (inactive) | GI50 [14]: > 100 µM (inactive) | GI50 [53]: > 100 µM (inactive) | GI50 [15]: > 100 µM (inactive) | GI50 [16]: 45.4 µM | GI50 [17]: > 100 µM (inactive) | GI50 [18]: > 100 µM (inactive) | GI50 [19]: > 100 µM (inactive) | GI50 [20]: > 100 µM (inactive) | GI50 [21]: > 100 µM (inactive) | GI50 [22]: > 100 µM (inactive) | GI50 [23]: 93.8 µM (inactive) | GI50 [24]: > 100 µM (inactive) | GI50 [26]: > 100 µM (inactive) | GI50 [27]: 97.7 µM (inactive) | GI50 [28]: > 100 µM (inactive) | GI50 [29]: > 100 µM (inactive) | GI50 [30]: 42.2 µM (inactive) | GI50 [31]: > 100 µM (inactive) | GI50 [32]: > 100 µM (inactive) | GI50 [33]: > 100 µM (inactive) | GI50 [34]: > 100 µM (inactive) | GI50 [54]: > 100 µM (inactive) | GI50 [35]: > 100 µM (inactive) | GI50 [36]: > 100 µM (inactive) | GI50 [37]: > 100 µM (inactive) | GI50 [38]: > 100 µM (inactive) | GI50 [55]: > 100 µM (inactive) | GI50 [39]: > 100 µM (inactive) | GI50 [40]: > 100 µM (inactive) | GI50 [41]: > 100 µM (inactive) | GI50 [43]: > 100 µM (inactive) | GI50 [44]: > 100 µM (inactive) | GI50 [45]: > 100 µM (inactive) | GI50 [46]: > 100 µM (inactive) | GI50 [47]: > 100 µM (inactive) | GI50 [48]: > 100 µM (inactive) | GI50 [57]: 88.7 µM (inactive) | GI50 [49]: > 100 µM (inactive) | GI50 [58]: > 100 µM (inactive) | GI50 [59]: > 100 µM (inactive) | GI50 [51]: 9.84 µM (inactive)
